In PMC4786809, “Determination of cyanidin 3-glucoside in rat brain, liver and kidneys by UPLC/MS-MS and its application to a short-term pharmacokinetic study” (Scientific Reports, 2016):

Key:
Assay type in all cases: in vivo, Wistar rats
[1] = Plasma concentrations and pharmacokinetics after intravenous bolus of C3G (NCA and two-compartment model); settings: male, Wistar, rat, iv, plasma; for AUC0-t / half-life: i.v. 668 nmol C3G; for AUC0-t: read-out: AUC0–20 (converted); for half-life: 668 nmol, read-out: Half life; for concentration at 0.25 min: 0.25 min after i.v. 668 nmol C3G; for concentration at 0.25 min / concentration at 2 min / concentration at 5 min / concentration at 15 min / concentration at 20 min: mean ± SEM n=4; for concentration at 2 min: 2 min after i.v. 668 nmol C3G; for concentration at 5 min: 5 min after i.v. 668 nmol C3G; for concentration at 15 min: 15 min after i.v. 668 nmol C3G; for concentration at 20 min: 20 min after i.v. 668 nmol C3G
Excerpt: (§1) Twenty-two male Wistar rats (Rattus Norvegicus, Harlan Italy S.r.l.), of same age (15 weeks), 293–390 g of body weight, were used. The rats were randomly divided into 5 groups, according to the time that elapsed after intravenous administration of the test compound, and one control group. Each time point was represented by four biological replicates. All animals were allowed to acclimate to the animal facility of the University of Trieste for at least 2 week before studies were initiated. The experimental design was vetted and approved by the bioethical committee of the University of Trieste (internal code 140PAS14), according to the provisions of the European Community Council Directive 2010/63/EU[39]. The methods were carried out in accordance with the approved guidelines. The animals (n = 22) were maintained in cages in a room at 23 ± 2 °C, 50–60% humidity with a 12-hour light-dark cycle. The night before the experiment, food was withdrawn from the cages but water was given ad libitum. On the day of the experiment, the rats were anesthetized with intra-peritoneal administration of tiletamine/zolazepam (1:1, 25 mg/kg body weight) and xylazine (10 mg/kg body weight). During anaesthesia (10 min in all cases), the heart and ventilation rate were monitored. The rats were placed on their backs, with the ventral side up and with the legs spread separately on a thermo-isolated support. The penis was extruded by sliding the prepuce downwards. The dorsal penis vein was then seen along both sides of the penis and exactly 10 min after anaesthesia 0.2 mL PBS without (control group) or with (treated group) 668 nmol cyanidin 3-glucoside (C3G) in PBS was injected using a 24-G hypodermic needle. Then the injection site was pressed with a swab for a few seconds, and the glans was encouraged to retract to prevent further bleeding. One min before sacrificing the rats, sodium heparin (0.1 ml, 500 IU) was injected again into the dorsal penis vein, exposed in the same way. […] Blood draining and excision of the organs were carried out according to the literature. In detail, blood was collected from the neck of rats hold upside down, immediately after their decapitation, which happened at the time points sharp. Exsanguination took 5 seconds; laparotomy and excision of the liver and the kidneys took 5 more seconds. The post-decapitation procedures were standardised. Urine was collected through the urinary bladder with a syringe before decapitation. Kidneys, liver and brain were washed with mQ water, immediately frozen in liquid nitrogen and stored at −80 °C.
(§2) Immediately after sampling, 5 mL of blood were transferred into ice-cold (−20 °C), deoxygenated aqueous 95% methanol in a ratio 1:9 (v/v). The urine was weighted and transferred into ice-cold, deoxygenated aqueous 95% methanol at a ratio of 1:9 (w/v). Frozen kidneys, liver and brain were grounded under cryogenic conditions (−196 °C) to 5 μm particles in a CryoMill (Retsch, Germany), using a single 25 mm i. d. steel ball (30 seconds, 25/sec frequency). The pulverized tissue was rapidly transferred (without thawing) into ice-cold, deoxygenated aqueous 95% methanol at a ratio of 1:9 (w/v). Cinnamic acid-d5, as internal standard, was dissolved in the aqueous methanol at concentration of 0.1 mg/L for the monitoring of the extraction protocol in biofluids and tissues.
(§3) All samples were extracted with an orbital shaker for 10 min at room temperature. The methanol extracts were then centrifuged for 5 min at 3600 rpm at 4 °C, decanted under a stream of nitrogen in 50 mL dark glass vessels and stored at −80 °C. Clean-up of extracted samples in methanol was performed by solid phase extraction (SPE), as previously described. Briefly, 5 mL of extracted samples were evaporated on a rotary evaporator and reconstituted in 10 mL of acidified water. Anthocyanins were extracted by solid-phase adsorption onto a hydrophobic matrix (Sep-Pak C18, 0.35 g, Waters, Milford, MA). […]

[2] = Urinary excretion after intravenous C3G
Excerpt: as §1, §2, §3

[3] = Liver concentrations and tissue pharmacokinetics after intravenous C3G; settings: for AUC0-t: i.v. 668 nmol C3G
Excerpt: as §1, §2, §3

[4] = Kidney concentrations and tissue pharmacokinetics after intravenous C3G; settings: for MTTK (Mean Transit time in kidneys) / AUC0-t / half-life: kidneys; for half-life: iv
Excerpt: as §1, §2, §3

[5] = Brain concentrations and tissue pharmacokinetics after intravenous C3G; settings: for AUC0-t: i.v. 668 nmol C3G
Excerpt: as §1, §2, §3

[6] = 0.25 min after i.v. 668 nmol C3G
[7] = 0.25 min after i.v. 668 nmol C3G, mean ± SEM n=4
[8] = male, Wistar, rat, kidney, 668 nmol
[9] = 0.25–20 min after i.v. 668 nmol C3G

SMILES	AUC0-t [1]	half-life [1]	concentration at 0.25 min [1]	concentration at 2 min [1]	concentration at 5 min [1]	concentration at 15 min [1]	concentration at 20 min [1]	Urine concentration [2, 6]	Urine concentration ([2]; 2 min after i.v. 668 nmol C3G)	Urine concentration ([2]; 5 min after i.v. 668 nmol C3G)	Urine concentration ([2]; 15 min after i.v. 668 nmol C3G)	Mean concentration in liver [3, 7]	Mean concentration in liver ([3]; 2 min after i.v. 668 nmol C3G)	Mean concentration in liver ([3]; 5 min after i.v. 668 nmol C3G)	Mean concentration in liver ([3]; 15 min after i.v. 668 nmol C3G)	Mean concentration in liver ([3]; 20 min after i.v. 668 nmol C3G)	AUC0-t ([3]; liver)	Mean concentration in kidneys ([4]; 2 min after i.v. 668 nmol C3G)	Mean concentration in kidneys ([4]; 5 min after i.v. 668 nmol C3G)	Urine concentration ([2]; 20 min after i.v. 668 nmol C3G)	also measured
COc1cc(-c2[o+]c3cc(O)cc(O)c3cc2O[C@@H]2O[C@H](CO)[C@@H](O)[C@H](O)[C@H]2O)cc(OC)c1O [M3G, Malvidin-3-O-β-glucoside]	5.72 nM·h	5.29 min	9.13 ± 3.46 nM	95.8 ± 61.7 nM	16.4 ± 13.1 nM	3.67 ± 0.14 nM	8.6 ± 3.88 nM	28.35 ± 17.87 pmol/g	9.57 ± 4.52 pmol/g	5.15 ± 1.88 pmol/g	3.17 ± 1.64 pmol/g	–	–	–	–	–	–	–	–	–	–
COc1cc(-c2[o+]c3cc(O)cc(O)c3cc2O[C@@H]2O[C@H](CO)[C@@H](O)[C@H](O)[C@H]2O)cc(O)c1O [PT3G, Petunidin-3-O-β-glucoside]	–	–	2.2 ± 1.05 nM	4.95 ± 3.16 nM	1.71 ± 1.39 nM	–	–	4.58 ± 2.84 pmol/g	3.30 ± 1.59 pmol/g	–	–	1.23 ± 0.59 pmol/g	2.42 ± 0.08 pmol/g	1.09 ± 0.52 pmol/g	1.60 ± 0.44 pmol/g	3.06 ± 0.19 pmol/g	33.85 pmol·min/g	2.82 ± 0.28 pmol/g	2.40 ± 0.13 pmol/g	–	Mean concentration in kidneys [4, 6]: 2.04 ± 0.59 pmol/g; Mean concentration in kidneys ([4]; 15 min after i.v. 668 nmol C3G): 2.29 ± 0.07 pmol/g; Mean concentration in kidneys ([4]; 20 min after i.v. 668 nmol C3G): 2.53 ± 0.26 pmol/g; MTTK (Mean Transit time in kidneys) [4]: 187.44 min; AUC0-t ([4]; unit per footnote *): 48.13 ^* pmol g^–1 min^–1; half-life [4, 8]: 135 min; Mean concentration in brain ([5]; 2 min after i.v. 668 nmol C3G): 1.15 ± 0.62 pmol/g; Mean concentration in brain ([5]; 5 min after i.v. 668 nmol C3G): 1.01 ± 0.46 pmol/g; Mean concentration in brain ([5]; 15 min after i.v. 668 nmol C3G): 2.45 ± 0.22 pmol/g; Mean concentration in brain ([5]; 20 min after i.v. 668 nmol C3G): 1.90 ± 0.60 pmol/g; AUC0-t ([5]; brain): 32.42 pmol·min/g
COc1ccc(-c2[o+]c3cc(O)cc(O)c3cc2O[C@@H]2O[C@H](CO)[C@@H](O)[C@H](O)[C@H]2O)cc1O [isoPN3G]	–	–	–	–	–	–	–	–	–	–	–	13.86 ± 4.32 pmol/g	6.19 ± 2.09 pmol/g	15.85 ± 1.82 pmol/g	1.39 ± 1.14 pmol/g	0.64 ± 0.25 pmol/g	145.57 pmol·min/g	–	–	–	half-life ([3]; liver): 3.18 min; Peak relative to PN3G ([3]; liver only): around 2.59 % of PN3G

Now from value to molecule, other results behind:

AUC0-t [1]	half-life [1]	concentration at 0.25 min [1]	concentration at 2 min [1]	concentration at 5 min [1]	concentration at 15 min [1]	concentration at 20 min [1]	Urine concentration [2, 6]	Urine concentration ([2]; 2 min after i.v. 668 nmol C3G)	Urine concentration ([2]; 5 min after i.v. 668 nmol C3G)	Urine concentration ([2]; 15 min after i.v. 668 nmol C3G)	Mean concentration in liver [3, 7]	Mean concentration in liver ([3]; 2 min after i.v. 668 nmol C3G)	Mean concentration in liver ([3]; 5 min after i.v. 668 nmol C3G)	Mean concentration in liver ([3]; 15 min after i.v. 668 nmol C3G)	Mean concentration in liver ([3]; 20 min after i.v. 668 nmol C3G)	AUC0-t ([3]; liver)	Mean concentration in kidneys ([4]; 2 min after i.v. 668 nmol C3G)	Mean concentration in kidneys ([4]; 5 min after i.v. 668 nmol C3G)	Urine concentration ([2]; 20 min after i.v. 668 nmol C3G)	SMILES	also measured
2.91 nM·h	8.16 min	33.7 ± 5.51 nM	13.1 ± 2.35 nM	12.3 ± 1.37 nM	3.73 ± 0.94 nM	3.4 ± 0.22 nM	10 ± 0 pmol/g	1480 ± 410 pmol/g	6540 ± 330 pmol/g	5670 ± 2240 pmol/g	539.38 ± 71.33 pmol/g	317.61 ± 35.86 pmol/g	364.74 ± 44.85 pmol/g	216.10 ± 36.06 pmol/g	100.84 ± 6.33 pmol/g	5610.12 pmol·min/g	1560 ± 180 pmol/g	850 ± 80 pmol/g	5160 ± 1110 pmol/g	COc1cc(-c2[o+]c3cc(O)cc(O)c3cc2O[C@@H]2O[C@H](CO)[C@@H](O)[C@H](O)[C@H]2O)ccc1O [PN3G, Peonidin-3-O-β-glucoside]	Amounts found in liver (range over sampling times) [3, 9]: 100.84 to 539.38 pmol/g; MTTL (Mean Transit Time in the liver) ([3]; liver): 3.93 min; Kp ([3]; male, Wistar, rat, intravenous, 668 nmol, liver vs plasma, read-out: AUC in liver relative to plasma): 32.1; half-life ([3]; male, Wistar, rat, liver, iv, 668 nmol, read-out: Half-life): 9.99 min; Mean concentration in kidneys [4, 7]: 1990 ± 550 pmol/g; Mean concentration in kidneys ([4]; 15 min after i.v. 668 nmol C3G): 890 ± 220 pmol/g; Mean concentration in kidneys ([4]; 20 min after i.v. 668 nmol C3G): 900 ± 140 pmol/g; MTTK (Mean Transit time in kidneys) [4]: 23.11 min; AUC0-t ([4]; i.v. 668 nmol C3G): 20.36 nmol·min/g; Kp ([4]; male, Wistar, rat, kidney, intravenous, 668 nmol, kidneys vs plasma, read-out: AUC in kidneys relative to plasma): 116; half-life [4, 8]: 20.8 min; Amounts found in brain (range over sampling times) [5, 9]: 0.37 to 2.07 pmol/g; Mean concentration in brain ([5]; 2 min after i.v. 668 nmol C3G): 2.07 ± 1.18 pmol/g; Mean concentration in brain ([5]; 5 min after i.v. 668 nmol C3G): 0.70 ± 0.30 pmol/g; Mean concentration in brain ([5]; 15 min after i.v. 668 nmol C3G): 0.40 ± 0.38 pmol/g; Mean concentration in brain ([5]; 20 min after i.v. 668 nmol C3G): 0.37 ± 0.13 pmol/g; MTTB (Mean Transit Time in the brain) ([5]; brain): 8.61 min; AUC0-t ([5]; brain): 17.10 pmol·min/g; half-life ([5]; male, Wistar, rat, brain, iv, 668 nmol): 15.6 min; Kp ([5]; male, Wistar, rat, intravenous, 668 nmol, brain vs plasma, read-out: AUC in brain as share of that in plasma): 0.0978
–	–	–	12.8 ± 10.5 nM	–	–	–	20 ± 10 pmol/g	30 ± 0 pmol/g	50 ± 10 pmol/g	20 ± 10 pmol/g	–	–	–	–	–	–	–	–	30 ± 10 pmol/g	OC[C@H]1O[C@@H](Oc2cc3c(O)cc(O)cc3[o+]c2-c2cc(O)c(O)c(O)c2)[C@H](O)[C@@H](O)[C@@H]1O [D3G, Delphinidin-3-O-β-glucoside]	–
0.673 nM·h	44.7 min	4.5 ± 0.62 nM	1.89 ± 0.17 nM	2.01 ± 0.28 nM	1.9 ± 0.19 nM	1.55 ± 0.13 nM	1.57 ± 0.40 pmol/g	7.92 ± 2.59 pmol/g	47.09 ± 4.16 pmol/g	33.22 ± 16.09 pmol/g	–	–	–	–	–	–	–	–	20.98 ± 5.61 pmol/g	OC[C@H]1O[C@@H](Oc2cc3c(O)cc(O)cc3[o+]c2-c2ccc(O)cc2)[C@H](O)[C@@H](O)[C@@H]1O [PG3G, Pelargonidin-3-O-β-glucoside]	–
